Data on two substances can be found in paper PMC10411393 (Journal of medicinal chemistry, 2022).

For test [1], the system named is Plk1. The conditions noted are these: read-out: IC50 against Plk1; cited from earlier work.
Test [2] relates to HeLa cells. The experiment in a line: MTS cell proliferation assay in asynchronously growing HeLa cells. In kind it is cell-based, human. Conditions: treated 2 days. Background: Formazan colour is commonly taken as a measure of viable cells.

The term IC50 denotes the concentration that gives 50% inhibition. On to PLH*SpT, for which the IC50 in test [1] is 17 nM.
On to PLHST, for which the “inhibition of cell proliferation (MTS)” value in test [2] was “failed to show any detectable level of cell cytotoxicity”.
